Reference: patent US20250325517A1, “ORAL DOSAGE FORMS OF ELRAGLUSIB” (Actuate Therapeutics, Inc., priority 2022, published 2025)
In brackets after ≈: the same amount, converted by molar mass.

Columns and labels:
[1] = Photo-Chamber Study 1 (10FV, 50FV, 50V7; visible and UV light); type: physicochemical
From the text: The photo-chamber and ambient light studies used a RP-HPLC method to monitor the following: • elraglusib concentration and % LC • elraglusib main peak Area % • elraglusib RelS1, elraglusib RelS2, and elraglusib Anhydride peak Area % values.
The three solutions were maintained in both 5-mL glass serum vials and UV-transparent plastic cuvettes (each with and without foil overwrap) and exposed to fractions (approximately 0, 25, 50, 75, and 100%) of ICH Q1B photostability conditions (1200 klux-hr in the visible region and 200 watt-h/m^2 in the UV region) using a calibrated photo-chamber.

[2] = Solubility of elraglusib in simulated intestinal fluid; type: physicochemical
Description: Solubility of elraglusib in simulated intestinal fluid with varying levels of SIF powder was measured to support formulation development, facilitate interpretation of in vitro dissolution, and support potential modeling and interpretation of in vivo pharmacokinetic data. The obtained solubility data are shown in Table 6-19 and is generally aligned with data previously collected for elraglusib.

photo-conversion rate, visible light compared with UV light ([1]; vials and cuvettes): approximately 5 times
% LC photo-conversion rate in vials (no foil) as % of rate in cuvettes (no foil) ([1]; visible light): approximately 60%
Average Concentration, 2 hour ([2]; 0.01N HCl, initial pH 2, [NaTC] 0 mM, 2 hour): 2.1 µg/mL
Average Concentration, 24 hour ([2]; 0.01N HCl, initial pH 2, [NaTC] 0 mM): 1.4 µg/mL
Average Concentration, 2 hour ([2]; 0.5% Simulated Intestinal Fluid (SIF), initial pH 6.5, [NaTC] 6.7 mM, 2 hour): 6.0 µg/mL
Average Concentration, 24 hour ([2]; 0.5% Simulated Intestinal Fluid (SIF), initial pH 6.5, [NaTC] 6.7 mM): 4.7 µg/mL
Average Concentration, 2 hour ([2]; 2% SIF, initial pH 6.5, [NaTC] 26.8 mM, 2 hour): 17.0 µg/mL
Average Concentration, 24 hour ([2]; 2% SIF, initial pH 6.5, [NaTC] 26.8 mM): 17.3 µg/mL
Average Concentration, 2 hour ([2]; Blank FaSSIF, initial pH 6.5, [NaTC] 0 mM, 2 hour): 2.5 µg/mL
Average Concentration, 24 hour ([2]; Blank FaSSIF, initial pH 6.5, [NaTC] 0 mM): 2.6 µg/mL
Average Concentration, 2 hour ([2]; Blank FeSSIF, initial pH 5, [NaTC] 0 mM, 2 hour): 2.4 µg/mL
Average Concentration, 24 hour ([2]; Blank FeSSIF, initial pH 5, [NaTC] 0 mM): 2.6 µg/mL
Average Concentration, 24 hour ([2]; FaSSIF, initial pH 6.5, [NaTC] 3 mM): 5.7 µg/mL
solubility ([2]; FaSSIF, pH 6.5, fassif, thermodynamic from solid, read-out: measured solubility of crystalline elraglusib): 5.7 µg/mL (≈ 14.1 µM)
Average Concentration, 2 hour ([2]; FeSSIF, initial pH 5, [NaTC] 15 mM, 2 hour): 8.4 µg/mL
Average Concentration, 24 hour ([2]; FeSSIF, initial pH 5, [NaTC] 15 mM): 11.6 µg/mL
pH dependence of equilibrium solubility ([2]; simulated intestinal fluid): essentially independent of pH
solubility thermodynamic at 2 h ([2]; thermodynamic from solid, FaSSIF, initial pH 6.5, [NaTC] 3 mM, 2 hour, read-out: Average Concentration, 2 hour): 5.2 µg/mL (≈ 12.9 µM)
Compound: Cn1cc(C2=C(c3coc4ccc(F)cc34)C(=O)NC2=O)c2cc3c(cc21)OCO3 [elraglusib, 3-(5-fluorobenzofuran-3-yl)-4-(5-methyl-5H-[1,3]dioxolo[4,5-f]indol-7-yl)-1H-pyrrole-2,5-dione]
% LC loss rate relative to main peak Area % loss rate ([1]; photo-exposure): approximately 6 times
